Here are results for four molecules from patent publication US9180175B2, “Methods of use for a natural Thomsen-Friedenreich disaccharide compound” (UNIVERSITY OF MARYLAND, BALTIMORE, priority 2011, dated 2015).

One may read the inhibition as the share of the control response that was lost under treatment. Read a high inhibition as a strong effect. In general, pKd refers to the Kd on a negative log10 scale, so that one unit is a factor of ten. Low readings indicate a high Kd, high ones a low Kd.

pIC50, pKd: −log10 of the molar value. Like-named read-outs stand apart in the source and are kept apart here.

For one assay, the target named is T1, gal4 (Homo sapiens, UniProt P56470).
T1 sequence (P56470 1-323): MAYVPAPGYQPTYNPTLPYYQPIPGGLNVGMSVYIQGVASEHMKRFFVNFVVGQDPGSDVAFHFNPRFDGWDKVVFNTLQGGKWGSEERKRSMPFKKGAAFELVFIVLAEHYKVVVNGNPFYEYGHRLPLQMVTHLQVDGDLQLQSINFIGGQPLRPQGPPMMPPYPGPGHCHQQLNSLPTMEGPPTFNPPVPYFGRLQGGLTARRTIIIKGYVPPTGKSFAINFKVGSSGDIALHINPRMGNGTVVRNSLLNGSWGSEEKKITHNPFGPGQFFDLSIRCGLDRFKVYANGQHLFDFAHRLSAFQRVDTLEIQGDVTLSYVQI
Kind of assay: Solid phase binding-inhibition assay: gal4 binding to asialofetuin. Particulars: read-out: I50 value.

Assay [1] has as its target gal9N (N-terminal of gal9) (UniProt O00182). The experiment in a line: Solid phase binding-inhibition assay: gal9N binding to asialofetuin. Particulars: read-out: I50 value.
For another assay, the system named is MOLT-4 cells. Kind of assay: Gal3-mediated apoptosis of MOLT-4 cells (annexin V). The class given is cell-based, human.
A further assay concerns Jurkat cells. The experiment in a line: Gal3-mediated apoptosis of Jurkat cells. Format: cell-based, human. From the text: (§1) Jurkat cells were used for gal3-mediated apoptosis at various concentration of gal3. To investigate gal3-mediated apoptosis of human CD8^+ cells, peripheral blood mononuclear cells (PBMCs) were isolated from chronic leukemia patients using Ficoll-paque density gradient method (39) followed by negative selection of CD8^+ cells with a cocktail of antibodies using a kit (BD Biosciences, MD). The presence of CD8^+ cells in the purified fraction was confirmed by staining cells with anti-CD8 antibody.

For a further assay, the system named is human CD8+ T cells. The experiment in a line: Gal3-mediated apoptosis of human CD8+ T cells (annexin V). The class given is cell-based.
Description: as §1

The test system of assay [2] is activated pmel T cells on B16 melanoma cells. Kind of assay: B16 melanoma cell-associated apoptosis of activated pmel T cells. The class given is cell-based, mouse. The settings on record: B16 monolayer about 24 h; untreated about 53%; TFD100 3.5 nM, lactose 50 μM. The method, then: To investigate if tumor-associated gal3 can induce tumor specific CD8 T cells, we used B16 melanoma-specific transgenic D90.1 CD8 T cells (pmel T cells) (40). After harvesting T cells from mouse spleen, cells were activated with a peptide (40), mixed with a monolayer of B16 melanoma cells and apoptosis was measured by Annexin V binding after gating with anti-CD8 antibodies.

For assay [3], the target named is T2, gal3 (Homo sapiens, UniProt P17931).
T2 construct: made in house
The experiment in a line: Surface plasmon resonance (Biacore) kinetics and affinity for gal3. Format: binding. The settings on record: SPR, biotinylated gal3 on chip. The method, then:
The binding kinetics and affinity of a few carbohydrates for gal3 were measured in Surface Plasmon Resonance (SPR)-based binding assays using a Biacore™ T200 instrument (GE Healthcare). Biotinylated gal3 was attached to Biacore Sensor Chip SA (GE Healthcare) according to the instructions. For this purpose, biotinlyated gal3 was diluted into HBS-EP+ (GE Heathcare) to a concentration of 1 μg/mL and captured onto the streptavidin surface to a final level of 1750 RU. A reference surface was prepared with biotin captured onto the streptavidin. […] The binding response of small carbohydrate ligands were measured in Resonance units (RU) in real time at 10 HZ. These carbohydrates were injected for 30 seconds at 50 μL/min, and 30 seconds of dissociation data were collected. […] Raw sensorgram data were reference subtracted and blank subtracted prior to kinetic and affinity analysis. Biacore™ T200 Evaluation software was used for Steady-state affinity analysis and kinetic analysis.

Assay [4] deals with T2, gal3. The experiment in a line: Solid phase binding-inhibition assay: gal3 binding to asialofetuin. Particulars: for IC50: read-out: I50 value (converted). On the procedure: Briefly, asialofetuin (0.5 μg/100 μl/well) in 0.1 M Na2CO3/0.02% NaN3 (pH 9.6) was adsorbed onto the wells of microtiter plates (Immulon; Dynatech Laboratories, Chantilly, Va.) at 37° C. for 3 h, and the bound glycoprotein was fixed with 2% formaldehyde in phosphate-buffered saline (PBS, 10 mM phosphate, 140 mM NaCl, pH 7.5) at 37° C. for 30 min. The plates were washed three times with PBS (azide-free)/0.05% Tween 20, and incubated with the gal3-biotin conjugate (10 ng/100 μl/well for binding assays) or with preincubated mixture of equal volume of conjugate and varying concentrations of test ligands (for binding-inhibition assays). After incubation for 1 h at 4° C., the plates were washed with ice-cold azide-free PBS-Tween 20, and the bound conjugate was allowed to interact with peroxidase labeled streptavidin (0.05 μg/100 μl well) in azide-free PBS-Tween for 1 h at 4° C. The plate was washed with ice-cold azide free PBS-Tween and the bound peroxidase activity was assayed with peroxidase substrate diammonium 2,2′-azinobis(3-ethylbenzothiazoline-6-sulfonate) (KPL, Rockville, Md.) (37). […] After incubation for 2 h on ice, the mix was dialyzed with PBS and purified by affinity chromatography on lactosyl-Sepharose (37). The purified gal3-biotin conjugate was dialyzed with PBS and stored in 1% BSA-50% glycerol at −20° C. until further use. […] O-Glycosidase treatment removes TF-disaccharide from protein (cleaves GalNAc-Ser/Thr linkage).

Another assay concerns HUVEC. Kind of assay: In vitro angiogenesis (tube formation) of HUVEC. Format: cell-based, human. The settings on record: recombinant gal3 5 μM, number of branching. The method, then:
After 5 h, the microvessel formation was analyzed under phase contrast microscope at the 10× magnification. For quantitation of tube formation, the number of branching was counted in six areas (each […]) of each well and an average value was taken.

A further assay relates to pmel T cells. The experiment in a line: Recombinant gal3-mediated apoptosis of tumor-specific CD8+ (pmel) T cells. Format: cell-based, mouse.

T2 sequence (P17931 whole entry): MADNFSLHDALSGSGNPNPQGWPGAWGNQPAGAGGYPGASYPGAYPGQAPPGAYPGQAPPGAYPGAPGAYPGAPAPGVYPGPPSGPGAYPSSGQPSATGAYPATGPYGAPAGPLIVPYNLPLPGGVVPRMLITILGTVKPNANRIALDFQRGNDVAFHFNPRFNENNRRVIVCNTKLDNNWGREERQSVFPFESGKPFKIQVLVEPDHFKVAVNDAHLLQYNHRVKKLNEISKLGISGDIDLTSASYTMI

As for `OC[C@H]1O[C@@H](O[C@H]2[C@H](O)[C@@H](O)C(O)O[C@@H]2CO)[C@H](O)[C@@H](O)[C@H]1O` (some centres unmarked) [Lactose], the pIC50 at gal4 was 2.00; in [1], 4.00. Besides, the inhibition at 50 µM was about 20% in the assay with MOLT-4 cells (Homo sapiens, MOLT-4); about 30% with Jurkat cells (Homo sapiens, Jurkat); about 67% with human CD8+ T cells (Homo sapiens, T-cell). The “apoptosis of T cells reduced to” value in assay [2] was found to be 39%.
With `CC(=O)N[C@H]1C(O)O[C@H](CO)[C@@H](O[C@@H]2O[C@H](CO)[C@H](O)[C@H](O)[C@H]2O)[C@@H]1O` (some centres unmarked) [N-acetyllactosamine], the pKd at gal3 [3] was 4.60.
For the molecule `CC(=O)NC1C(O)OC(CO)C(O)C1OC1OC(CO)C(O)C(O)C1O` (centres unmarked) [TFD, Galβ1,3GalNAc], the “RIA, relative inhibitory activity compared to lactose (taken as 1)” value at gal3 [4] (from I50 in μg/ml, Table 1) is on record as 0.47. The IC50 on gal3 [4] (gal3 binding to asialofetuin) was 200 µM; on gal3 [4] (inhibition of gal3 binding to asialofetuin, Table 1), 151 µM. The same molecule gave a pKd on gal3 [3] of 3.20.
As to “gal3: purified recombinant galectin-3, used as inducer of angiogenesis and T cell apoptosis”, the “enhancement of tube formation” value in the assay on HUVEC is on record as about 25%. Moreover, the cells undergoing apoptosis in the assay on MOLT-4 cells (gal3 5 μM, annexin V) is on record as about 50%. The gal3-mediated apoptosis with Jurkat cells (gal3 5 μM) is about 34%. The cells death in the assay on human CD8+ T cells (gal3 5 μM, flow cytometry) is recorded as about 54%. In addition, the “cell death of non-activated CD8+ T cells” value in the assay on pmel T cells (gal3 up to 15 μM, same as cells alone) is about 22%. The “apoptosis of activated CD8+ T cells” value with pmel T cells (recombinant gal3 5 μM, CD8 alone ~61%) is on record as about 76%.
